Test results: PMC13702766, “Pharmacokinetic-Modifying Linker Design Modulates Performance of Multivalent PSMA/GRPR-Cell-Targeting ^177Lu Radiopharmaceuticals” (Cancers, 2026)

Molecular target: T1, PSMA (Homo sapiens, UniProt Q04609)
T1 construct: LNCaP whole cells were prepared in suspension; host or cells: LNCaP human prostate carcinoma cells
Test: Whole-cell competitive binding assay in PSMA[+] LNCaP cells vs [177Lu]Lu-PSMA-617
Procedure: LNCaP whole cells were prepared in suspension (7.50 × 10^5 cells/mL) in binding media (DMEM + 0.2% BSA + 25 mM HEPES). […] Samples were incubated at room temperature for 60 min, centrifuged, and the supernatant was removed. Cell pellets were washed twice with ice-cold PBS and subsequently counted using an automated gamma counter. […] IC50 values were determined by nonlinear regression in GraphPad Prism, with all experiments performed in triplicate.

T1 sequence (Q04609 whole entry): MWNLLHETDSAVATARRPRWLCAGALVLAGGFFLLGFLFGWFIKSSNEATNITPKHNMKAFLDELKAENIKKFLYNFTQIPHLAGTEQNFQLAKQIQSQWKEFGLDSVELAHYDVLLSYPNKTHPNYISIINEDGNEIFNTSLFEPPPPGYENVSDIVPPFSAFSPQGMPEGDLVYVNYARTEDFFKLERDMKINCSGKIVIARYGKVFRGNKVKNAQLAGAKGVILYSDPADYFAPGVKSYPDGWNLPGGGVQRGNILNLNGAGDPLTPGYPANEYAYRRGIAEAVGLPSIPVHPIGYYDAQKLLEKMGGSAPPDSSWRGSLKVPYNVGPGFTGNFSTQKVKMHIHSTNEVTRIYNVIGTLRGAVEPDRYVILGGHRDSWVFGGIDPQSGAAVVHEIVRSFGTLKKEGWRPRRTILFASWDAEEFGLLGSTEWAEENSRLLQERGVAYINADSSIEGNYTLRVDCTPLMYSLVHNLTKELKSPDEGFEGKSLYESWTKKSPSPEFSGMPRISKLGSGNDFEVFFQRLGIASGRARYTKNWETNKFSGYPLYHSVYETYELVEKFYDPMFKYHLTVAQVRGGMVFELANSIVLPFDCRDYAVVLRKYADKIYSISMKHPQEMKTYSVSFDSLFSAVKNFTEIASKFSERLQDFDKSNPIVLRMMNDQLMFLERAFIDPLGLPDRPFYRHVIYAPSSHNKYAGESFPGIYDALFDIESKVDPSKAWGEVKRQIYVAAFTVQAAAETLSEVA

Work on `O=C(O)CC[C@H](NC(=O)N[C@@H](CCCCNC(=O)[C@H](Cc1ccc2ccccc2c1)NC(=O)[C@H]1CC[C@H](CNC(=O)CN2CCN(CC(=O)O)CCN(CC(=O)O)CCN(CC(=O)O)CC2)CC1)C(=O)O)C(=O)O` [PSMA-617] yielded an IC50 of 2.7 ± 0.1 nM.
